Inhibition and IC50 data for twelve compounds are collected here from publication PMC8780549, “Discovery of Small Molecules as Membrane-Bound Catechol-O-methyltransferase Inhibitors with Interest in Parkinson’s Disease: Pharmacophore Modeling, Molecular Docking and In Vitro Experimental Validation Studies” (Pharmaceuticals, 2021).

One experiment has as its target T1, human recombinant MBCOMT (Homo sapiens, UniProt P21964).
T1 sequence (P21964 1-271): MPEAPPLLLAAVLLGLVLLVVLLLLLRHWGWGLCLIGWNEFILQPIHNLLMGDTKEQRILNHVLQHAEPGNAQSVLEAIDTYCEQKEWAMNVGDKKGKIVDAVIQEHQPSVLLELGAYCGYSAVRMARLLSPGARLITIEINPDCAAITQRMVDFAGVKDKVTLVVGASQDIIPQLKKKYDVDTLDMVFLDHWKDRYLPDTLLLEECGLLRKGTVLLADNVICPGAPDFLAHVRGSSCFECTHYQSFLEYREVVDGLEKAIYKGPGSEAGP
Kind of experiment: In-vitro MBCOMT enzymatic inhibition assay (metanephrine from epinephrine, HPLC).

Another experiment has as its system Liver MBCOMT. Conditions: cited from earlier work.
Experiment [1] relates to dopaminergic neuronal cells (N27). Kind of experiment: MTT cytotoxicity assay in N27 cells. Conditions: Rattus norvegicus, 48 h. Format: cell-based.
The test system of experiment [2] is normal human dermal fibroblasts (NHDF). Kind of experiment: MTT cytotoxicity assay in NHDF cells. Format: cell-based. Conditions: 48 h.
[3] abbreviates: IC50 (nM), Recombinant MBCOMT, this work, means with 95% confidence (n = 2 to 3).
Setting [4] is: IC50, Recombinant MBCOMT, bound stated.

With `CC(C)Cn1c(-c2cc(-c3ccc(O)c(O)c3O)nc3c2c(O)nn3C(C)C)nc2ccccc21` [ZINC95473053], on human recombinant MBCOMT, the inhibition (as a rule, the share of the control response that was lost under treatment) at 10 µM is 41% and the inhibition at 100 µM is 46%.

Take `Cc1ccc(C(=O)c2cc(O)c(O)c([N+](=O)[O-])c2)cc1` [Tolcapone]: the IC50 (as a rule, the concentration at which inhibition is half-maximal) in the experiment on Liver MBCOMT was 0.123 µM.

With `COc1ccc(-c2nc(-c3cccc(O)c3O)[nH]c2-c2oc(C)cc(=O)c2O)cc1` [ZINC1547205762], at human recombinant MBCOMT, the inhibition at 10 µM was found to be 14% and the inhibition at 100 µM came out at 27%.

Regarding `Cc1cc(=O)oc2c(O)c(O)c(C(=O)O)cc12` [ZINC68675288], on human recombinant MBCOMT, the inhibition at 10 µM was 40% and the inhibition at 100 µM came out at 43%.

On to `Cc1[nH]nc(-c2ccc(O)c(O)c2O)c1Oc1ccccc1` [ZINC302226], for which the values for the IC50 (in experiment [1]; in experiment [2] (Homo sapiens); on human recombinant MBCOMT (setting [3])) were 52.5 µM, > 100 µM and 1080 nM, respectively. Besides, the inhibition at 10 µM on human recombinant MBCOMT came out at 56%. The inhibition at 100 µM on human recombinant MBCOMT is 100%.

As to `C/C(=N\Cc1ccccc1)c1ccc(O)c(O)c1O` [ZINC98288], the IC50 in experiment [1] was 69.8 µM; in experiment [2] (Homo sapiens) it was > 100 µM; on human recombinant MBCOMT (setting [3]) it was 944 nM; on human recombinant MBCOMT (setting [4]), < 1000 nM. Besides, the inhibition at 10 µM on human recombinant MBCOMT stood at 100%. Besides, the inhibition at 100 µM on human recombinant MBCOMT came to 100%.

For `O=c1[nH]cc(F)c(=O)[nH]1` [Compound 5-FU, 5-fluorouracil, reference compound], the IC50 in experiment [1] was determined as 4.28 µM; in experiment [2] (Homo sapiens), 5.16 µM.

Turning to `COC(=O)c1cc(O)c(O)c([N+](=O)[O-])c1` [ZINC38175059], at human recombinant MBCOMT, the inhibition at 10 µM was 100% and the inhibition at 100 µM turned out to be 100%.

In the case of `N#Cc1cc(O)c(O)c([N+](=O)[O-])c1` [ZINC27985035], the IC50 came to 61.3 µM in experiment [1]; 40.3 µM in experiment [2]; 40.3 µM in experiment [2] (Homo sapiens, NHDF).

As to `C[C@@]1(C(=O)O)CC[C@]2(C)CC[C@]3(C)C4=CC(=O)c5c(cc(O)c(O)c5C=O)[C@@]4(C)CC[C@@]3(C)[C@@H]2C1` [ZINC605706834], at human recombinant MBCOMT, the inhibition at 10 µM worked out at 39% and the inhibition at 100 µM was 34%.

As to `Cc1ccc(/N=C/c2c(O)c(O)cc3ccccc23)cc1` [ZINC825166420], the concentration for half-maximal inhibition (IC50) in experiment [1] worked out at 17 µM; in experiment [2] (Homo sapiens), 12.1 µM; on human recombinant MBCOMT (setting [3]), 1540 nM. Besides, the inhibition at 10 µM at human recombinant MBCOMT was 72%. Further, at human recombinant MBCOMT, the inhibition at 100 µM was found to be 100%.

Turning to `O=Cc1cc([N+](=O)[O-])c(O)c(O)c1Br` [ZINC78496496], the IC50 in experiment [1] was > 100 µM; in experiment [2] (Homo sapiens) it was 92.9 µM; on human recombinant MBCOMT (setting [3]), 470 nM; at human recombinant MBCOMT (setting [4]), < 1000 nM. Besides, on human recombinant MBCOMT, the inhibition at 10 µM was determined as 81%. For the same compound, the inhibition at 100 µM on human recombinant MBCOMT stood at 100%.
